Measurements published in patent publication US20160354781A1, “MICROFLUIDIC PLATE FOR SAMPLE PROCESSING” (National Taiwan University, priority 2015, published 2016).
≈ marks a conversion by molar mass, not a printed value.

Tests used:
MDA-MB-231 cells [1] = assay: Anticancer drug screening in 96-well plates (control), MTT assay; type: cell-based; settings: Homo sapiens, 96-well control, 24 hour drug treatment, read-out: IC50 (concentration yielding a 50% decrease in normalized percentage cell viability)
Experimental: The anticancer drug screening of cell lines was conducted with MGP and on 96-well plates as control. Two typical breast cancer lines, MCF-7 (ATCC, HTB-22) and MDA-MB-231 (ATCC, HTB-26) were used. The reason to choose the two types of cancer cell lines was that MCF-7 stood for typical luminal type cancer cells while MDA-MB-231 stood for normal-like typically. By using the two cell lines in drug response assay on the microfluidic device, we could examine whether MGP was workable to both the two types of cancer cells since primary samples may have diversely cancer cell types. Anticancer drug screening using cell lines could confirm the feasibility of applying MGP to individualized chemosensitivity assay on primary patient samples. In addition, cell lines on MGP could help optimize the operation of drug response assay beforehand, which would reduce the difficulties when dealing with primary samples. […]
Anticancer drug screening was also conducted using conventional 96-well plates as controls. […] The quantity of cells in single well was determined to coordinate the same cell-to-substrate ratio as in MGP (1000 cells/1.766 mm2). […] Finally, a plate reader (MQX 200, BioTek) was used to determine the absorbance of the DMSO at 570 nm, which was used to determine the number of living cells. […]

MDA-MB-231 cells [2] = assay: Anticancer drug screening in the Micro-Gap Plate (MGP), viability by tri-fluorescent staining; type: cell-based; settings: Homo sapiens, 24 hour drug treatment, viability normalized against untreated cells, read-out: IC50 (concentration yielding a 50% decrease in normalized percentage cell viability)
Experimental: The anticancer drug screening of cell lines was conducted with MGP and on 96-well plates as control. Two typical breast cancer lines, MCF-7 (ATCC, HTB-22) and MDA-MB-231 (ATCC, HTB-26) were used. The reason to choose the two types of cancer cell lines was that MCF-7 stood for typical luminal type cancer cells while MDA-MB-231 stood for normal-like typically. By using the two cell lines in drug response assay on the microfluidic device, we could examine whether MGP was workable to both the two types of cancer cells since primary samples may have diversely cancer cell types. Anticancer drug screening using cell lines could confirm the feasibility of applying MGP to individualized chemosensitivity assay on primary patient samples. In addition, cell lines on MGP could help optimize the operation of drug response assay beforehand, which would reduce the difficulties when dealing with primary samples. Moreover, the method of viability assessment could be examined on MGP using cell lines since fluorescent images was one of most important factors to determine the viability of cancer cells after drug treatment. […]
Primary cells were suspended (16.7 cells/0.1 μL) in culture medium (the formula of culture medium is stated in the previous section). […] The volume of cell suspension in each unit was determined on the basis of the final density of cell suspension as stated in previous section. […]

For `CC(=O)O[C@@]12CO[C@@H]1C[C@H](O)[C@@]1(C)C(=O)[C@H](O)C3=C(C)[C@@H](OC(=O)[C@H](O)[C@@H](NC(=O)OC(C)(C)C)c4ccccc4)C[C@@](O)([C@@H](OC(=O)c4ccccc4)[C@H]21)C3(C)C` [docetaxel], the IC50 (MDA-MB-231 cells [1]) was 25.4 µg/mL (≈ 31.4 µM) and the IC50 (MDA-MB-231 cells [2]) was 23.4 µg/mL (≈ 29 µM).
